{
  "source": "paper PMC6524873",
  "about": "(TH Open: Companion Journal to Thrombosis and Haemostasis, 2018)",
  "key": {"[1]": {"tested_on": "human plasma", "test": "Prothrombin time (PT) in pooled normal human plasma", "assay_type": "biochemical", "details": "up to 1,100 ng/mL", "experimental": "(§1) The ranges of inhibitor concentrations were chosen to encompass the peak and trough plasma levels measured in patients treated with these agents. [26] The PT was performed using HemosIL HS PLUS (Instrumentation Laboratory, Lexington, Massachusetts, United States) on an ACL 7000 coagulometer (Instrumentation Laboratory) according to the manufacturer's instructions. The aPTT was performed using Actin FSL reagent (Siemens, Marburg, Germany) on a BCS XP analyzer (Siemens) according to the manufacturer's instructions. Assays were performed three times in duplicate at 37 ° C. These PT and aPTT reagents were chosen because of their wide availability and their reported sensitivities to rivaroxaban and apixaban. [27]"}, "[2]": {"tested_on": "thrombin generation in plasma", "test": "Plasma-based calibrated thrombin generation assay", "assay_type": "biochemical, human", "details": "3 pM tissue factor, concentration-dependent"}, "[3]": {"tested_on": "human plasma", "test": "Activated partial thromboplastin time (aPTT) in pooled normal human plasma", "assay_type": "biochemical", "details": "up to 1,100 ng/mL", "experimental": "as §1"}, "[4]": {"target": "T1, factor Xa (Homo sapiens, UniProt P00742)", "T1 sequence (P00742 41-179 limits assumed)": "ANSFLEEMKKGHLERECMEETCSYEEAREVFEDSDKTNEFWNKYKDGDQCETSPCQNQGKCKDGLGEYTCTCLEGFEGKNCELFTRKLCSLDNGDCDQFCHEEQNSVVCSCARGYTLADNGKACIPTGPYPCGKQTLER", "T1 sequence (P00742 235-488 limits assumed)": "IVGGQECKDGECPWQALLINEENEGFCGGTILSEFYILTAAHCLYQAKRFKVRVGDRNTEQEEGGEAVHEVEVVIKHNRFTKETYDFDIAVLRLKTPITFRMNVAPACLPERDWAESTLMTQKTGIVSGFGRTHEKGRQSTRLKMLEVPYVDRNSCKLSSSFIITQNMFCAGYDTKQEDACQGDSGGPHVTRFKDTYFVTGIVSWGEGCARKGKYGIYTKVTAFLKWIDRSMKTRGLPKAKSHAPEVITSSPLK", "test": "biochemical", "details": "read-out: inhibition of factor Xa chromogenic activity"}, "[5]": {"target": "factor Xa incorporated into the prothrombinase complex (Homo sapiens, UniProt P00742)", "sequence (P00742 41-179 limits assumed)": "as the sequence (P00742 41-179 limits assumed) above", "sequence (P00742 235-488 limits assumed)": "as the sequence (P00742 235-488 limits assumed) above", "sequence (P12259 29-737 partner limits assumed)": "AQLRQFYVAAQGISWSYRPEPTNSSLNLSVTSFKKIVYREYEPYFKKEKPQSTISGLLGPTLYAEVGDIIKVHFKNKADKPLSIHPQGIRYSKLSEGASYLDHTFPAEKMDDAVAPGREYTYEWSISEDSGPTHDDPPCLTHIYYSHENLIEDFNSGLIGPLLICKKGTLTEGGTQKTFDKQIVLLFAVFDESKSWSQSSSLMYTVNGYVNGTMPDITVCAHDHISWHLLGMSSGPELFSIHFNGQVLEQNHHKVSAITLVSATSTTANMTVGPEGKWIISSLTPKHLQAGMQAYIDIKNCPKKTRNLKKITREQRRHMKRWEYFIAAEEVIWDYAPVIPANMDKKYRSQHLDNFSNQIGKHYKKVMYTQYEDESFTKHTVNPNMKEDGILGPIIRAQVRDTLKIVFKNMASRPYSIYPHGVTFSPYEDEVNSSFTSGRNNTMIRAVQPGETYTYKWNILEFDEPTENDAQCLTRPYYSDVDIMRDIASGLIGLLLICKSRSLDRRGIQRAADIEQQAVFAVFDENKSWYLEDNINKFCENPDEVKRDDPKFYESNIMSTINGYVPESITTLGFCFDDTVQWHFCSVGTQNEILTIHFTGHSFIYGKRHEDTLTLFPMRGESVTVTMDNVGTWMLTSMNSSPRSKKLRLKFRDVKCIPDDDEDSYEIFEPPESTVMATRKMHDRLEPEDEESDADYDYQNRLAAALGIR", "sequence (P12259 1574-2224 partner limits assumed)": "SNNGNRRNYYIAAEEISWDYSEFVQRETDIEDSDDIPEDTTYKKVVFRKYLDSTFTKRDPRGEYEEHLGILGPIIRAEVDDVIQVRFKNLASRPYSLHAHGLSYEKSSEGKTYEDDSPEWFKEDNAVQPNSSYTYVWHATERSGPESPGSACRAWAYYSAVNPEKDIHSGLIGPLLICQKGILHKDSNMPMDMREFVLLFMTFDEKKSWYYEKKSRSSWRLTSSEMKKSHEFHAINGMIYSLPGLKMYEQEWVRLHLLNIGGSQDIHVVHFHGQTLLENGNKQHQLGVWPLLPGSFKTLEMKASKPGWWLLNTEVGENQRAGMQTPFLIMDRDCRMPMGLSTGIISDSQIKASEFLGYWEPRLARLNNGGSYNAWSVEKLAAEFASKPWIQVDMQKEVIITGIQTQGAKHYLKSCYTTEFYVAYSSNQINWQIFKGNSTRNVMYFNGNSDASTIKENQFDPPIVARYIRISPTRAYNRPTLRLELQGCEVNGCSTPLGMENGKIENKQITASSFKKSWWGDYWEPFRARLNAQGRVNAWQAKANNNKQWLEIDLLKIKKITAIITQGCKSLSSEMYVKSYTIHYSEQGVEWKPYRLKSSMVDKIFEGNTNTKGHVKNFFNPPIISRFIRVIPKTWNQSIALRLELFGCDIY", "test": "Factor Xa chromogenic activity in the presence of factor Va, PCPS and prothrombin (hirudin added)", "details": "dose-dependent, data not shown"}, "[6]": {"target": "T1, factor Xa", "test": "Rate constants of inhibition of factor Xa (Pefafluor Xa, mixed inhibition model, Scheme 1)", "assay_type": "biochemical", "parameters": "factor Xa and thrombin were purchased from Enzyme Research Laboratories; purchased Enzyme Research Laboratories (South Bend, IN)"}, "[7]": {"target": "T2, factor Xa incorporated in prothrombinase (Homo sapiens, UniProt P00742)", "T2 sequence (P00742 41-179 limits assumed)": "as the sequence (P00742 41-179 limits assumed) above", "T2 sequence (P00742 235-488 limits assumed)": "as the sequence (P00742 235-488 limits assumed) above", "T2 sequence (P12259 29-737 partner limits assumed)": "as the sequence (P12259 29-737 partner limits assumed) above", "T2 sequence (P12259 1574-2224 partner limits assumed)": "as the sequence (P12259 1574-2224 partner limits assumed) above", "test": "Rate constants of inhibition of factor Xa in prothrombinase (prothrombin activation, thrombin-DAPA fluorescence, Scheme 2)"}, "[8]": {"target": "T2, factor Xa incorporated in prothrombinase", "test": "Rate constants of inhibition of prothrombinase with rMZ as substrate (meizothrombin-DAPA fluorescence)", "details": "37°C"}, "[9]": {"details": "37°C, […] inhibitor, 100 µM Pefafluor Xa, […] factor Xa"}, "[10]": {"details": "37°C, prothrombinase in complex with either form of meizothrombin"}, "[11]": {"details": "37°C, prothrombinase in complex with prothrombin"}, "[12]": {"details": "prothrombin substrate, 37°C, prothrombinase without prothrombin"}},
  "data": [
    {"compound": "COc1ccc(-n2nc(C(N)=O)c3c2C(=O)N(c2ccc(N4CCCCC4=O)cc2)CC3)cc1", "note": "[Apixaban, 1-(4-methoxyphenyl)-7-oxo-6-(4-(2-oxopiperidin-1-yl)phenyl)-4,5,6,7-tetrahydro-1H-pyrazolo[3,4-c]pyridine-3-carboxamide]", "values": [
      {"measurement": "effect on the PT", "setting": "[1]", "result": "prolonged the PT and aPTT in a concentration-dependent manner"},
      {"measurement": "effect on endogenous thrombin potential (ETP)", "setting": "[2]", "result": "decreased endogenous thrombin potential (ETP)"},
      {"measurement": "effect on lag time", "setting": "[2]", "result": "prolonged the lag time"},
      {"measurement": "effect on the aPTT", "setting": "[3]", "result": "prolonged the PT and aPTT in a concentration-dependent manner"}
    ]},
    {"compound": "O=C(NC[C@H]1CN(c2ccc(N3CCOCC3=O)cc2)C(=O)O1)c1ccc(Cl)s1", "note": "[Rivaroxaban, 5-chloro-N-((5S)-2-oxo-3-[4-(3-oxomorpholin-4-yl)phenyl]-1,3-oxazolidin-5-ylmethyl)thiophene-2-carboxamide]", "values": [
      {"measurement": "effect on the PT", "setting": "[1]", "result": "prolonged the PT and aPTT in a concentration-dependent manner"},
      {"measurement": "inhibition at 0.02 µM", "setting": "[4]", "result": "~85", "unit": "%"},
      {"measurement": "inhibition of factor Xa chromogenic activity in the presence of prothrombinase components", "setting": "[5]", "result": "over 95%"},
      {"measurement": "j 3, off-rate, free factor Xa", "setting": "[6]; [9]", "result": "(3.21 ± 0.28) × 10 ^−2 s ^−1"},
      {"measurement": "j 4, off-rate, factor Xa-substrate complex", "setting": "[6]; [9]", "result": "(2.01 ± 0.17) × 10 ^−2 s ^−1"},
      {"measurement": "k 3, on-rate, free factor Xa", "setting": "[6]; [9]", "result": "(3.77 ± 0.32) × 10 ^−2 nM ^−1 ·s ^−1"},
      {"measurement": "k 4, on-rate, factor Xa-substrate complex", "setting": "[6]; [9]", "result": "(1.34 ± 0.04) × 10 ^−2 nM ^−1 ·s ^−1"},
      {"measurement": "on- and off-rate constants for binding factor Xa alone (k 3 and j 3), on average faster than apixaban", "setting": "[6]; average of k3 and j3 ratios", "result": 21, "unit": "fold"},
      {"measurement": "binding to the factor Xa-fluorogenic substrate complex (k 4 and j 4), on average faster than apixaban", "setting": "[6]; average of k4 and j4 ratios", "result": 25, "unit": "fold"},
      {"measurement": "rate of factor Xa inhibition, faster than apixaban", "setting": "[6]; kinetic measurements, p < 0.001", "result": "up to 4 fold"},
      {"measurement": "effect on endogenous thrombin potential (ETP)", "setting": "[2]", "result": "decreased endogenous thrombin potential (ETP)"},
      {"measurement": "effect on lag time", "setting": "[2]", "result": "prolonged the lag time"},
      {"measurement": "effect on peak thrombin concentration", "setting": "[2]", "result": "reduced peak thrombin concentration"},
      {"measurement": "effect on the aPTT", "setting": "[3]", "result": "prolonged the PT and aPTT in a concentration-dependent manner"},
      {"measurement": "ji 3, off-rate, E · M + I ⇔ E · M · I or E · M2 + I ⇔ E · M2 · I", "setting": "[7]; [10]", "result": "(2.95 ± 0.11) × 10 ^−3 s ^−1"},
      {"measurement": "ki 3, on-rate, E · M + I ⇔ E · M · I or E · M2 + I ⇔ E · M2 · I", "setting": "[7]; [10]", "result": "(2.37 ± 0.22) × 10 ^−3 nM ^−1 ·s ^−1"},
      {"measurement": "ji 2, off-rate, E · P + I ⇔ E · P · I", "setting": "[7]; [11]", "result": "(1.12 ± 0.15) × 10 ^−2 s ^−1"},
      {"measurement": "ki 2, on-rate, E · P + I ⇔ E · P · I", "setting": "[7]; [11]", "result": "(1.24 ± 0.02) × 10 ^−2 nM ^−1 ·s ^−1"},
      {"measurement": "K Pase1, lower than apixaban", "setting": "[7]; free enzyme inhibition, prothrombin substrate", "result": 454, "unit": "fold"},
      {"measurement": "dissociation rates, faster than apixaban", "setting": "[7]; free factor Xa or factor Xa incorporated into the prothrombinase complex", "result": "about 3 fold"},
      {"measurement": "ji 1, off-rate, E + I ⇔ E · I", "setting": "[7]; [12]", "result": "(1.31 ± 0.11) × 10 ^−3 s ^−1"},
      {"measurement": "ki 1, on-rate, E + I ⇔ E · I", "setting": "[7]; [12]", "result": "(5.38 ± 0.35) × 10 ^−3 nM ^−1 ·s ^−1"},
      {"measurement": "ki 3 on-rate with prothrombinase-meizothrombin complex, slower than apixaban", "setting": "[7]; rivaroxaban slower than apixaban", "result": 3, "unit": "fold"},
      {"measurement": "ji 1, off-rate, E + I ⇔ E · I", "setting": "[8]; free prothrombinase", "result": "(2.15 ± 0.18) × 10 ^−3 s ^−1"},
      {"measurement": "ki 1, on-rate, E + I ⇔ E · I", "setting": "[8]; free prothrombinase", "result": "(3.46 ± 0.49) × 10 ^−2 nM ^−1 ·s ^−1"},
      {"measurement": "ji 2, off-rate, E · rMZ + I ⇔ E · rMZ · I", "setting": "[8]; prothrombinase-rMZ complex", "result": "(1.23 ± 0.08) × 10 ^−4 s ^−1"},
      {"measurement": "ki 2, on-rate, E · rMZ + I ⇔ E · rMZ · I", "setting": "[8]; prothrombinase-rMZ complex", "result": "(6.41 ± 0.44) × 10 ^−3 nM ^−1 ·s ^−1"}
    ]}
  ]
}
